Assay results as given in ChEMBL document CHEMBL4382280, “Inhibitors of G12C Mutant Ras Proteins for the Treatment of Cancers” (ACS Med Chem Lett, 2019).
pIC50: −log10 of the molar value.

Molecular target: GTPase KRas (Homo sapiens, UniProt P01116, G12C)
Assay: Inhibition of GDP loaded biotin-labeled KRAS G12C mutant (unknown origin) assessed as reduction in guanine nucleotide exchange preincubated for 4 hrs followed by GST-RAF-RBD addition in presence of GTPgammaS by FRET assay

Chain of GTPase KRas (P01116 whole entry G12C): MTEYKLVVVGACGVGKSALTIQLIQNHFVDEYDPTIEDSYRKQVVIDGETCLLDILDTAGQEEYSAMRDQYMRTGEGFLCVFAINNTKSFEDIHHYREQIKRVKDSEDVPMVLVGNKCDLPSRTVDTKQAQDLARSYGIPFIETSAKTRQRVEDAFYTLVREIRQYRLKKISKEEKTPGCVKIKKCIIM

pIC50 | SMILES
6.91 | C=CC(=O)N1CCN2c3ncnc4cc(-c5c(C)ccc6[nH]ncc56)c(Cl)c(c34)OC[C@@H]2C1 (stereo in doubt; form 1)
7.92 | C=CC(=O)N1CCN2c3ncnc4cc(-c5c(C)ccc6[nH]ncc56)c(Cl)c(c34)OC[C@@H]2C1 (stereo in doubt; form 3)
